Reference: US7358239B2, “Pyrrolidinyl, piperidinyl or homopiperidinyl substituted (benzodioxan, benzofuran or benzopyran) derivatives” (Janssen Pharmaceutica, N.V., priority 1999, dated 2008)

System: fundus of the stomach (gastric tone)
Experiment: Gastric tone measured by an electronic barostat in conscious dogs
Assay type: in vivo
Details: mean maximal change in gastric volume on relaxation of the fundus; S.C. administration, 0.63 mg/kg; 1 hour observation period; constant pressure 6 mmHg; conscious female beagle dogs
Method: C.1. Gastric Tone Measured by an Electronic Barostat in Conscious Dogs Gastric tone cannot be measured by manometric methods. Therefore an electronic barostat was used. This allows the study of the physiological pattern and regulation of gastric tone in conscious dogs and the influence of test-compounds on this tone. The barostat consists of an air injection system which is connected by a double-lumen 14-French polyvinyl tube to an ultrathin flaccid polyethylene bag (maximal volume: ±700 ml). Variations in gastric tone were measured by recording changes in the volume of air within an intragastric bag, maintained at a constant pressure. The barostat maintains a constant pressure (preselected) within a flaccid air-filled bag introduced into the stomach, changing the volume of air within, the bag by an electronic feedback system. Thus, the barostat measures gastric motor activity (contraction or relaxation) as changes in intragastric volume (decrease or increase resp.) at a constant intragastric pressure. The barostat consists of a strain gauge linked by an electronic relay to an air injection-aspiration system. Both the strain gauge and the injection system are connected by means of double-lumen polyvinyl tube to an ultrathin polyethylene bag. […] Test compounds were screened, i.e. changes in gastric volume were measured, usually at 0.63 mg/kg. […]

[1(R),[B-(3α,4α)]]-1-[1-[(3,4-dihydro-2H-1-benzopyran-2-yl)methyl]-3-methoxy-4-piperidinyl]-2(1H)pyrimidinone [Co. No. 2]
Maximum change in volume: 9 mL
